# pKi: −log10 of the molar value. Counter-ions that a name gives are not always drawn.
# What was measured:
# [1] = target: T1, recombinant human NK1 receptors (Homo sapiens, UniProt P25103); assay: NK1-receptor binding affinity, displacement of [3H]-substance P; conditions: displacement of [3H]-substance P from recombinant human NK1 receptors expressed in CHO cell membranes; average of at least two determinations
# T1 construct: expressed in transfected cells; host or cells: Chinese Hamster Ovary (CHO) cells, membrane preparation
# T1 sequence (P25103 whole entry): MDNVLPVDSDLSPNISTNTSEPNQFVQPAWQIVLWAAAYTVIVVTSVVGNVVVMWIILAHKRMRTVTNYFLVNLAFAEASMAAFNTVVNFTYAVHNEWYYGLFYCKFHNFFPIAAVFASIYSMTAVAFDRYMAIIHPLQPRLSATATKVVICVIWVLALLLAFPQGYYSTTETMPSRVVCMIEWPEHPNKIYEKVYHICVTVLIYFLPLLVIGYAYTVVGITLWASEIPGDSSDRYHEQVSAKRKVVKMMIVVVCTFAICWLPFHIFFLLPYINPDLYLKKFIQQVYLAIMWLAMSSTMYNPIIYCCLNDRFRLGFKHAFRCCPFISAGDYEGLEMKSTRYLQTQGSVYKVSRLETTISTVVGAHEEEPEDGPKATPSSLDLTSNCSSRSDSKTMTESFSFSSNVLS
# Method: NK1-receptor binding affinity has been determined in vitro by the compounds' ability to displace [3H]-substance P (SP) from recombinant human NK1 receptors expressed in Chinese Hamster Ovary (CHO) cell membranes.
# CHO cell membranes were prepared by using a modification of the method described by Dam T and Quirion R (Peptides, 7:855-864, 1986). Thus ligand binding was performed in 0.4 ml of 50 mM HEPES, pH 7.4, containing 3 mM MnCl2, 0.02% BSA, 0.5 nM [^3H]-Substance P (30÷56 Ci/mmol, Amersham), a final membrane concentration of 25 μg of protein/ml, and the test compounds. The incubation proceeded at room temperature for 40 min. Non-specific binding was determined using excess of Substance P (1 μM) and represents about 6% of the total binding.
# The affinity of the compound of the invention for NK1 receptor was determined using the NK1-receptor binding affinity method measuring in vitro by the compounds' ability to displace [3H]-substance P (SP) from recombinant human NK1 receptors expressed in Chinese Hamster Ovary (CHO) cell membranes. The affinity values are expressed as negative logarithm of the inhibition constant (Ki) of displacer ligands (pKi).
# The pKi values obtained as the average of at least two determinations with representative compounds of the invention are given in the following table: […]
SMILES,pKi [1],melting point
"Cc1cc(F)ccc1[C@H]1CNCCN1C(=O)N(C)Cc1cc(F)cc(F)c1 [Example 6, 2-(S)-(4-Fluoro-2-methyl-phenyl)-piperazine-1-carboxylic Acid, (3,5-difluoro-benzyl)-methylamide Hydrochloride]",8.78,
"Cc1cc(F)ccc1[C@H]1CNCCN1C(=O)N(C)Cc1cc(Cl)ccc1Cl [Example 7, 2-(S)-(4-Fluoro-2-methyl-phenyl)-piperazine-1-carboxylic Acid, (2,5-dichloro-benzyl)-methylamide Hydrochloride]",9.07,

# Stronger by pKi [1], values ahead:
pKi [1],melting point,SMILES
9.14,,"Cc1cc(C)cc(CN(C)C(=O)N2CCNC[C@@H]2c2ccc(F)cc2C)c1 [Example 2, 2-(S)-(4Fluoro-2-methyl-phenyl)piperazine-1-carboxylic Acid, (3,5-dimethyl-benzyl)-methylamide Hydrochloride]"
9.43,110 to 112 °C,"Cc1cc(F)ccc1[C@H]1CNCCN1C(=O)N(C)Cc1cc(Cl)cc(Cl)c1.Cl [Example 3, 2-(S)-(4-Fluoro-2-methyl-phenyl)-piperazine-1-carboxylic Acid, (3,5-dichloro-benzyl)-methylamide Hydrochloride]"
9.19,,"Cc1cc(F)ccc1[C@H]1CNCCN1C(=O)N(C)Cc1ccc(Cl)c(Cl)c1 [Example 8, 2-(S)-(4-fluoro-2-methyl-phenyl)-piperazine-1-carboxylic Acid, (3,4-dichlorobenzyl)-methylamide Trifluoroacetate]"

# Reference: patent publication US20040157858A1, “Piperazine derivatives as tachykinin antagonists” (priority 2001, published 2004)
